Here are results for 30 compounds from patent US8673908B2, “Kynurenine production inhibitor” (Kyowa Hakko Kirin Co., Ltd., priority 2008, dated 2014).

A word on the IC50: it is the concentration that gives 50% inhibition.

For this assay, the system named is kynurenine production in IFN-γ-treated KATO-III cells. The assay can be described thus: Inhibitory activity on kynurenine production (Test Example 1). Format: cell-based. The conditions noted are these: Homo sapiens, IFN-γ treatment, culture for 96 hours, read-out: IC50 value, inhibition of kynurenine production. On the procedure:
This assay was performed according to a method modified from the method described in the Journal of Biological Chemistry (J. Biol. Chem.), vol. 263, pp. 2041-2048 (1988). Culture of KATO-III derived from human gastric cancer cells was performed by use of RPMI 1640 (GIBCO, 11875) supplemented with 10 vol % FBS (GIBCO, 10091-148, lot. 665285). 1 μL of a DMSO solution of the test substance was diluted with 199 μL of the culture medium, and the diluted solution was added to wells of a 384 well plate (10 μL/well). Then, IFN-γ (Sigma, 1-3265) was added to the culture medium so that the concentration of IFN-γ was 31.25 ng/mL, and the KATO-III cells were suspended at 50,000 cells/ml, in the culture medium. 40 μL of the suspension was added to each well (2,000 cells/well), and culture of the KATO-III cells was performed at 37° C. under a 5% CO2 atmosphere for 96 hours. The final concentration of DMSO was limited to 0.1 vol % or less so that DMSO itself might not affect the kynurenine concentration measured by this assay. After the culture, 10 μL of a 30 w/v % aqueous trichloroacetic acid solution was added to each well, and incubation was performed at 65° C. for 30 minutes. The plate was centrifuged at 2,500×g for 5 minutes, and then 15 μL of the supernatant in each well was transferred into another 384 well plate. To each of the transferred supernatants, 15 μL of a 2 w/v % solution of p-dimethylaminobenzaldehyde in acetic acid was added, incubation was performed at 65° C. for 20 minutes, and then the absorbance at 480 nm was measured.
[formula] Sample: the absorbance value of the well to which a DMSO solution containing the test substance was added and in which cells were treated with IFN-γ. Blank: the absorbance value of the well to which only DMSO, not the test substance was added and in which cells were treated with IFN-γ. Control: the absorbance value of the well to which only DMSO, not the test substance was added and in which cells were not treated with IFN-γ.
In this assay, expression of IDO in KATO-III cells is induced by IFN-γ treatment and then kynurenine in the culture medium is quantified. It is known that the kynurenine concentration in a culture medium increases in proportion to the enzymatic activity of intracellular IDO (for example, the Journal of Biological Chemistry (J. Biol. Chem.), vol. 263, pp. 2041-2048 (1988)). […] It is known that kynurenine production is inhibited by IDO inhibitors (for example, the Journal of Clinical Investigation (J. Clin. Invest.), vol. 117, No. 5, pp. 1147-1154 […]), and thus it is expected that Compound (I) also has an inhibitory effect on IDO.
Consider `CCCS(=O)(=O)Nc1nc2ccccc2nc1O[C@H](C1CCOCC1)C(F)(F)F` [Compound 347, (R)—N-{3-[2,2,2-trifluoro-1-(tetrahydro-2H-pyran-4-yl)-ethoxy]quinoxalin-2-yl}propane-1-sulfonamide], for which the IC50 was under 1000 nM. As for `CC(C)(C)OC(=O)NCCc1ccc(S(=O)(=O)Nc2nc3ccccc3nc2OC(c2cccnc2)C(F)(F)F)cc1` (stereo not drawn) [Compound 208, tert-butyl 4-(N-{3-[2,2,2-trifluoro-1-(pyridin-3-yl)ethoxy]quinoxalin-2-yl}sulfamoyl)phenethylcarbamate], the figure is under 1000 nM; as for `Cc1noc(C)c1S(=O)(=O)Nc1nc2ccccc2nc1OC(c1cncs1)C(F)(F)F` (stereo not drawn) [Compound 178, 3,5-dimethyl-N-{3-[2,2,2-trifluoro-1-(thiazol-5-yl)ethoxy]-quinoxalin-2-yl}isoxazole-4-sulfonamide], under 1000 nM.

`CCCS(=O)(=O)Nc1nc2ccccc2nc1OC(c1cccnc1)C(C)C` (stereo not drawn) [Compound 210, N-{3-[2-methyl-1-(pyridin-3-yl)propoxy]quinoxalin-2-yl}-propane-1-sulfonamide]: the IC50 is under 1000 nM. The value for `CCCS(=O)(=O)Nc1nc2ccccc2nc1O[C@@H](c1cccnc1)C(F)(F)F` [Compound 313, (S)—N-{3-[2,2,2-trifluoro-1-(pyridin-3-yl)ethoxy]-quinoxalin-2-yl}propane-1-sulfonamide] was 1000 to 10000 nM; that for `CCCS(=O)(=O)Nc1nc2ccccc2nc1OC(C(F)(F)F)C1(C)CCN(S(C)(=O)=O)CC1` (stereo not drawn) [Compound 357, N-{3-[2,2,2-trifluoro-1-(1-methanesulfonyl-4-methylpiperidin-4-yl)ethoxy]quinoxalin-2-yl}propane-1-sulfonamide] was under 1000 nM. Take `O=S(=O)(Nc1nc2ccccc2nc1OC(C1CCOC1)C(F)(F)F)c1ccccc1Cl` (stereo not drawn) [Compound 136, 2-chloro-N-{3-[2,2,2-trifluoro-1-(tetrahydrofuran-3-yl)-ethoxy]quinoxalin-2-yl}benzenesulfonamide]: the IC50 is under 1000 nM. The value for `Cn1cncc1C(Oc1nc2ccccc2nc1NS(=O)(=O)c1ccccc1Cl)C(F)(F)F` (stereo not drawn) [Compound 175, 2-chloro-N-{3-[2,2,2-trifluoro-1-(1-methyl-1H-imidazol-5-yl)ethoxy]quinoxalin-2-yl}benzenesulfonamide] was under 1000 nM; that for `O=S(=O)(Nc1nc2ccccc2nc1OC(c1cccnc1)C(F)(F)F)C1CCCC1` (stereo not drawn) [Compound 169, N-{3-[2,2,2-trifluoro-1-(pyridin-3-yl)ethoxy]quinoxalin-2-yl}cyclopentanesulfonamide] was under 1000 nM.

As for `O=S(=O)(Nc1nc2ccccc2nc1OC(c1cccs1)C(F)(F)F)c1cccc(Cl)c1Cl` (stereo not drawn) [Compound 100, 2,3-dichloro-N-{3-[2,2,2-trifluoro-1-(thiophen-2-yl)-ethoxy]quinoxalin-2-yl}benzenesulfonamide], the IC50 was under 1000 nM.

As for `O=S(=O)(Nc1nc2ccccc2nc1OCc1ccncc1)c1cccc(Cl)c1Cl` [Compound 26, 2,3-dichloro-N-{3-[(pyridin-4-yl)methoxy]quinoxalin-2-yl}-benzenesulfonamide], the IC50 is 1000 to 10000 nM. The value for `O=S(=O)(Nc1nc2ccccc2nc1OC(c1cnc(Cl)s1)C(F)(F)F)c1ccccc1Cl` (stereo not drawn) [Compound 110, 2-chloro-N-{3-[2,2,2-trifluoro-1-(2-chlorothiazol-5-yl)-ethoxy]quinoxalin-2-yl}benzenesulfonamide] was under 1000 nM. `O=S(=O)(Nc1nc2ccccc2nc1OCc1ccc2ccccc2c1)c1ccc(Cl)cc1Cl` [Compound 29, 2,4-dichloro-N-{3-[(2-naphthyl)methoxy]quinoxalin-2-yl}-benzenesulfonamide]: the concentration for half-maximal inhibition (IC50) was under 1000 nM. Take `O=S(=O)(Nc1nc2ccccc2nc1OC(C1CCCCC1)C(F)(F)F)c1ccccc1Cl` (stereo not drawn) [Compound 118, 2-chloro-N-[3-(1-cyclohexyl-2,2,2-trifluoroethoxy)-quinoxalin-2-yl]benzenesulfonamide]: the IC50 is under 1000 nM. As for `Cn1c(C(Oc2nc3ccccc3nc2NS(=O)(=O)c2cccc(Cl)c2Cl)C(F)(F)F)cc2ccccc21` (stereo not drawn) [Compound 103, 2,3-dichloro-N-{3-[2,2,2-trifluoro-1-(1-methyl-1H-indol-2-yl)ethoxy]quinoxalin-2-yl}benzenesulfonamide], the figure is under 1000 nM; as for `Nc1ccccc1S(=O)(=O)Nc1nc2ccccc2nc1OC(c1cccnc1)C(F)(F)F` (stereo not drawn) [Compound 157, 2-amino-N-{3-[2,2,2-trifluoro-1-(pyridin-3-yl)ethoxy]-quinoxalin-2-yl}benzenesulfonamide], under 1000 nM; as for `O=Cc1ccc(C(Oc2nc3ccccc3nc2NS(=O)(=O)c2ccccc2Cl)C(F)(F)F)cc1` (stereo not drawn) [Compound 58, 2-chloro-N-{3-[2,2,2-trifluoro-1-(4-formylphenyl)ethoxy]-quinoxalin-2-yl}benzenesulfonamide], under 1000 nM. On to `COc1ccc(C(Oc2nc3ccccc3nc2NS(=O)(=O)c2ccccc2Cl)C(F)(F)F)cc1` (stereo not drawn) [Compound 40, 2-chloro-N-{3-[2,2,2-trifluoro-1-(4-methoxyphenyl)ethoxy]-quinoxalin-2-yl}benzenesulfonamide], for which the IC50 is under 1000 nM. For `CCCS(=O)(=O)Nc1nc2ccccc2nc1OC(c1cc2ccccc2n1C)C(F)(F)F` (stereo not drawn) [Compound 135, N-{3-[2,2,2-trifluoro-1-(1-methyl-1H-indol-2-yl)ethoxy]-quinoxalin-2-yl}propane-1-sulfonamide], the IC50 is under 1000 nM.

Take `CCCS(=O)(=O)Nc1nc2ccccc2nc1O[C@H](c1ccc(Cl)nc1)C(F)(F)F` [Compound 348, (R)—N-{3-[2,2,2-trifluoro-1-(6-chloropyridin-3-yl)ethoxy]-quinoxalin-2-yl}propane-1-sulfonamide]: the IC50 was under 1000 nM. The value for `CCC(=O)C(CC)Oc1nc2ccccc2nc1NS(=O)(=O)c1ccccc1Cl` (stereo not drawn) [Compound 237, 2-chloro-N-[3-(4-oxohexan-3-yloxy)quinoxalin-2-yl]benzenesulfonamide] was under 1000 nM; that for `CC(C)(Oc1nc2ccccc2nc1NS(=O)(=O)c1ccccc1Cl)c1cccnc1` [Compound 91, 2-chloro-N-{3-[1-methyl-1-(pyridin-3-yl)ethoxy]quinoxalin-2-yl}benzenesulfonamide] was 1000 to 10000 nM; that for `Cc1nc(C)c(C(Oc2nc3ccccc3nc2NS(=O)(=O)c2ccccc2Cl)C(F)(F)F)s1` (stereo not drawn) [Compound 106, 2-chloro-N-{3-[2,2,2-trifluoro-1-(2,4-dimethylthiazol-5-yl)ethoxy]quinoxalin-2-yl}benzenesulfonamide] was under 1000 nM. In the case of `CC(C)CS(=O)(=O)Nc1nc2ccccc2nc1OC(c1cccnc1)C(F)(F)F` (stereo not drawn) [Compound 180, 2-methyl-N-{3-[2,2,2-trifluoro-1-(pyridin-3-yl)ethoxy]-quinoxalin-2-yl}propane-1-sulfonamide], the IC50 is under 1000 nM.

For `CCCS(=O)(=O)Nc1nc2ccccc2nc1OC(C1CCN(C(C)=O)CC1)C(F)(F)F` (stereo not drawn) [Compound 330, N-{3-[2,2,2-trifluoro-1-(1-acetylpiperidin-4-yl)ethoxy]-quinoxalin-2-yl}propane-1-sulfonamide], the IC50 is under 1000 nM. As for `O=S(=O)(Nc1nc2ccccc2nc1OC(c1cccnc1)C(F)(F)F)c1ccsc1` (stereo not drawn) [Compound 161, N-{3-[2,2,2-trifluoro-1-(pyridin-3-yl)ethoxy]quinoxalin-2-yl}thiophene-3-sulfonamide], the figure is under 1000 nM. As for `O=S(=O)(Nc1nc2ccccc2nc1OCc1ccc2ccccc2c1)c1cccc(C(F)(F)F)c1` [Compound 22, 3-(trifluoromethyl)-N-{3-[(2-naphthyl)methoxy]quinoxalin-2-yl}benzenesulfonamide], the figure is under 1000 nM; as for `Cc1cc2nc(NS(=O)(=O)c3ccccc3Cl)c(OC(c3cccnc3)C(F)(F)F)nc2cc1C` (stereo not drawn) [Compound 260, 2-chloro-N-{6,7-dimethyl-3-[2,2,2-trifluoro-1-(pyridin-3-yl)ethoxy]quinoxalin-2-yl}benzenesulfonamide], 1000 to 10000 nM; as for `COc1ccc(COc2nc(Cl)cnc2NS(=O)(=O)c2cccc(Cl)c2Cl)cc1` [Compound 2], 1000 to 10000 nM. As for `O=S(=O)(Nc1nc2ccccc2nc1OC(c1cccnc1)C(F)(F)F)c1cccs1` (stereo not drawn) [Compound 140, N-{3-[2,2,2-trifluoro-1-(pyridin-3-yl)ethoxy]quinoxalin-2-yl}thiophene-2-sulfonamide], the figure is under 1000 nM.
